Reference: US7572806B2, “PPAR active compounds” (Plexxikon, Inc., priority 2003, dated 2009)
Where two headings read alike, the source gives them in different places.

Key:
PPARδ [1] = target: T1, PPARδ (Homo sapiens, UniProt Q03181); settings: cited from earlier work
T1 sequence (Q03181 1-441): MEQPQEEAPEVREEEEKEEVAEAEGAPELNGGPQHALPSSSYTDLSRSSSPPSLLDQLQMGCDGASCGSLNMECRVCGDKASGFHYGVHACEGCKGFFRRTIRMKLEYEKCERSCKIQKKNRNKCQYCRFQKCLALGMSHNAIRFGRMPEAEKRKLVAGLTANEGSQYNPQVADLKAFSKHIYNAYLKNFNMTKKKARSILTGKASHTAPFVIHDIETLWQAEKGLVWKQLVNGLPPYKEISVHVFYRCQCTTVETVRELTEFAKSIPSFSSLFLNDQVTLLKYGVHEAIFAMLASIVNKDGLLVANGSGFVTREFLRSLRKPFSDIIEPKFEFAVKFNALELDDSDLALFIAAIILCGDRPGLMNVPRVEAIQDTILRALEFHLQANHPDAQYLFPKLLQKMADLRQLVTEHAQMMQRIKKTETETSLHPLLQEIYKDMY

murine PPARα = target: T2, murine PPARα (Mus musculus, UniProt P23204); settings: cited from earlier work
T2 sequence (P23204 1-468): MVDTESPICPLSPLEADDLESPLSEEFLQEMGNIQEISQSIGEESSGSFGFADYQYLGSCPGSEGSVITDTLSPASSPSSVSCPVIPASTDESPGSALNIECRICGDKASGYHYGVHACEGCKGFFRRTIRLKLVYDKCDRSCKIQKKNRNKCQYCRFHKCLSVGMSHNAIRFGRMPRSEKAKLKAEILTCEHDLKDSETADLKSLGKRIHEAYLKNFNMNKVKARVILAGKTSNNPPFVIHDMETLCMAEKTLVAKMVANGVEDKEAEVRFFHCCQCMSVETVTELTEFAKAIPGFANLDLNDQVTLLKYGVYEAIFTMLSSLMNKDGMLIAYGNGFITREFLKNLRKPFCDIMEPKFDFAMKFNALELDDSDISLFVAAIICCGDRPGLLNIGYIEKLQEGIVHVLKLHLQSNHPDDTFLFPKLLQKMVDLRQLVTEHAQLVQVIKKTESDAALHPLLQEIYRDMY

PPARγ = target: T3, PPARγ (Homo sapiens, UniProt P37231); assay: Alpha screen assay, agonist mode, ligand dependent interaction of PPAR with coactivator peptide; type: biochemical; settings: for EC50: Alpha screen
T3 sequence (P37231 1-505): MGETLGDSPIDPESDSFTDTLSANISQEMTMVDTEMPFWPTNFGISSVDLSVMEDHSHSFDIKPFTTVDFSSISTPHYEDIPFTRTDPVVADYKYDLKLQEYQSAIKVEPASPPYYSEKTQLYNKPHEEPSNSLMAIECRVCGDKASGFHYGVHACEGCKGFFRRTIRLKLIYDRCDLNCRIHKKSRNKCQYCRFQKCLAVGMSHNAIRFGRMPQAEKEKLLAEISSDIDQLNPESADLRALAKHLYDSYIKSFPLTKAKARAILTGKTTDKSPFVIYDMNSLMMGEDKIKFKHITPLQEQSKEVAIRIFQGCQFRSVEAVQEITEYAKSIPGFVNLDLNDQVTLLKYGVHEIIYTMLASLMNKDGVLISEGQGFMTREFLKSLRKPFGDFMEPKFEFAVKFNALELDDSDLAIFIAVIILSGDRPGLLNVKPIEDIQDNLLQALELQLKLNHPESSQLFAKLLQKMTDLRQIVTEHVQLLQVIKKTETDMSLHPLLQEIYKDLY
Method: (§1) The homogenous Alpha screen assay was used in the agonist mode to determine the ligand dependent interaction of the PPARs (α,δ,γ) with the coactivator peptides (SRC or DRIP205). Briefly 15 ul of the reaction mix (50 mM Tris pH 7.5, 50 mM Kcl, 0.05% Tween 20, 1 mM DTT, 0.1% BSA and 10 nM-200 nMPPAR and […] coactivator peptide) was added to the test compound (1 ul compound in DMSO) and preincubated for 1-6 hr. Next, 5 ul of the Alpha screen beads were added. The reactions were incubated for 2 hrs before taking the reading in the Fusion alpha instrument. In the antagonist mode compounds were assayed for inhibition of the co-activator binding signal caused by the control agonists for each receptor.
(§2) The controls agonists used were WY-14643(PPAR(α), farglitazar (PPAR(γ) and bezafibrate (PPAR(δ).
(§3) Using the assay above, compounds from Table 1 were analyzed for activity. The data reported in Table 2 was generated via the alpha screen assay and expressed in μMol/L. The data points from the Fusion alpha instrument were transferred to Assay Explorer® (MDL) to generate a curve and calculate the inflection point of the curve as EC50.

PPARα = target: T4, PPARα (Homo sapiens, UniProt Q07869); assay: as above; type: biochemical
T4 sequence (Q07869 1-468): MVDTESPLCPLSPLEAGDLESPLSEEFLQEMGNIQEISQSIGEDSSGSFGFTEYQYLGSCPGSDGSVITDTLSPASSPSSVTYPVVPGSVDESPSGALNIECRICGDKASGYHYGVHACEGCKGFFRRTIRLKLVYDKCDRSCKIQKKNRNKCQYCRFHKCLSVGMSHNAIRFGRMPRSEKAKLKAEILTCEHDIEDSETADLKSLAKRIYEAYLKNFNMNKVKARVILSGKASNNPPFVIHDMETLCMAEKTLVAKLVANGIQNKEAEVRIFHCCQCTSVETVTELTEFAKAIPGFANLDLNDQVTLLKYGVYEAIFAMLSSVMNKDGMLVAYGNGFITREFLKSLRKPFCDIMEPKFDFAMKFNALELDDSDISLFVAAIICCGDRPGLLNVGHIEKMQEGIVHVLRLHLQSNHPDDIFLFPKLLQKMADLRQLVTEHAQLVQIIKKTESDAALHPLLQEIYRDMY
Method: as §1, §2, §3

PPARδ [2] = target: T1, PPARδ; assay: as above; type: biochemical
Method: as §1, §2, §3

PPARs (α,δ,γ) = assay: Alpha screen assay, pan-activity across the PPARs; type: biochemical, human; settings: PPARα, PPARδ and PPARγ
Method: as §1, §2, §3

[3] = large prospective trial; cited from earlier work
[4] = agonist mode, read-out: PPARγ Agonist
[5] = agonist mode, read-out: PPARα agonist
[6] = agonist mode, read-out: PPARδ Agonist

SMILES | EC50 (PPARγ; [4]) [µM] | EC50 (PPARα; [5]) [µM] | EC50 (PPARδ [2]; [6]) [µM] | further results
CCCc1c(OCCCOc2ccc(OCC(=O)O)cc2)ccc(C(C)=O)c1O [L-165041] | – | – | – | agonist selectivity for PPARδ over PPARγ (PPARδ [1]): approximately 30 fold; activity on murine PPARα (murine PPARα): inactive
CCc1ccc2c(c1)c(CCC(=O)O)cn2S(=O)(=O)c1ccccc1 [compound 6, 3-(1-Benzenesulfonyl-5-ethyl-1H-indol-3-yl)-propionic acid] | ≤ 10 | > 10 | > 10 | EC50 (PPARγ; read-out: activity on PPARγ): ~8 µM; selectivity (PPARγ; PPARγ versus PPARα and δ): selective for PPARγ; EC50 (PPARα; read-out: activity on PPARα): ≥ 200 µM; EC50 (PPARδ [2]; read-out: activity on PPARδ): ≥ 200 µM
COc1ccc2c(c1)c(CCC(=O)O)cn2S(=O)(=O)c1ccccc1 [compound 29, 3-(1-Benzenesulfonyl-5-methoxy-1H-indol-3-yl)-propionic acid] | ≤ 10 | ≤ 10 | ≤ 10 | pan-activity (PPARs (α,δ,γ)): low micromolar or even sub-micromolar
O=C(O)CCc1nn(S(=O)(=O)c2ccccc2)c2ccccc12 [compound 39, 3-(1-Benzenesulfonyl-1H-indazol-3-yl)-propionic acid] | > 10 | > 10 | > 10 | –
CCCCOc1ccc(S(=O)(=O)n2cc(CCC(=O)O)c3cc(OC)ccc32)cc1 [compound 43, 3-[1-(4-Butoxy-benzenesulfonyl)-5-methoxy-1H-indol-3-yl]-propionic acid] | ≤ 10 | ≤ 10 | ≤ 10 | pan-activity (PPARs (α,δ,γ)): low micromolar or even sub-micromolar
COc1ccc2c(c1)c(CCC(=O)O)cn2S(=O)(=O)c1ccc(Cl)cc1 [compound 49, 3-[1-(4-Chloro-benzenesulfonyl)-5-methoxy-1H-indol-3-yl]-propionic acid] | ≤ 10 | ≤ 10 | ≤ 10 | –
COc1ccc2c(c1)c(CCC(=O)O)cn2S(=O)(=O)c1ccc(Cl)c(Cl)c1 [compound 53, 3-[1-(3,4-Dichloro-benzenesulfonyl)-5-methoxy-1H-indol-3-yl]-propionic acid] | ≤ 10 | ≤ 10 | ≤ 10 | pan-activity (PPARs (α,δ,γ)): low micromolar or even sub-micromolar
COc1ccc2c(c1)c(CCC(=O)O)cn2Cc1ccccc1 [compound 71, 3-(1-Benzyl-5-methoxy-1H-indol-3-yl)-propionic acid] | > 10 | ≤ 10 | > 10 | –
COc1ccc2c(c1)c(CCC(=O)O)cn2C(=S)Nc1ccccc1 [compound 75, 3-(5-Methoxy-1-phenylthiocarbamoyl-1H-indol-3-yl)-propionic acid] | > 10 | > 10 | > 10 | –
CCCCc1ccc(S(=O)(=O)n2cc(CCC(=O)O)c3cc(OC)ccc32)cc1 [compound 77, 3-[1-(4-Butyl-benzenesulfonyl)-5-methoxy-1H-indol-3-yl]-propionic acid] | ≤ 10 | ≤ 10 | ≤ 10 | –
COc1ccc2c(c1)c(CCC(=O)O)cn2S(=O)(=O)c1cccc(OC(F)(F)F)c1 [compound 79, 3-[5-Methoxy-1-(3-trifluoromethoxy-benzenesulfonyl)-1H-indol-3-yl]-propionic acid] | ≤ 10 | ≤ 10 | ≤ 10 | –
COc1ccc2c(c1)c(CCC(=O)O)cn2C(=O)c1ccccc1 [compound 81, 3-(1-Benzoyl-5-methoxy-1H-indol-3-yl)-propionic acid] | > 10 | ≤ 10 | > 10 | –
CCOc1ccc2c(c1)c(CCC(=O)O)cn2S(=O)(=O)c1ccccc1 [compound 82, 3-(1-Benzenesulfonyl-5-ethoxy-1H-indol-3-yl)-propionic acid] | ≤ 10 | ≤ 10 | ≤ 10 | –
COc1ccc2c(c1)c(CCC(=O)O)cn2C(=O)Nc1ccccc1 [compound 85, 3-(5-Methoxy-1-phenylcarbamoyl-1H-indol-3-yl)-propionic acid] | > 10 | > 10 | > 10 | –
O=C(O)CCc1cn(S(=O)(=O)c2ccccc2)c2ccc(-c3ccsc3)cc12 [compound 92, 3-(Benzenesulfonyl-5-thiophen-3-yl-1H-indol-3-yl)-propionic acid] | ≤ 10 | ≤ 10 | > 10 | –
O=C(O)CCc1cn(S(=O)(=O)c2ccccc2)c2ccccc12 [compound 97, 3-(1-Benzenesulfonyl-1H-indol-3-yl)-propionic acid] | > 10 | > 10 | > 10 | –
Cc1ccc(C)c(OCCCC(C)(C)C(=O)O)c1 [gemfibrozil] | – | – | – | reduction in cardiovascular events or death [3]: 22%
